Laboratory results reported in US20240398814A1, “KRAS INHIBITOR AND HDAC INHIBITOR COMBINATION FOR THE TREATMENT OF CANCER” (Northwestern University, priority 2023, published 2024).

What was measured:
[1] = tested on: human KRAS, LKB1 mutant lung cancer cells; assay: FGFR1 resistance mechanism in human KRAS, LKB1 mutant lung cancer cells; assay type: cell-based; details: 9 days of trametinib treatment, entinostat treatment days 3-9 (6 days total)
[2] = tested on: NF-kB/p65 protein; assay: Western blot of p65 nuclear localisation and K310 acetylation in KL LJE1 cells; assay type: cell-based, mouse
Protocol: Protein lysates in CST buffer (20 mM Tris pH 7.5, 150 mM NaCl, 1% Triton X-100, 50 mM NaF, 1 mM EDTA, 1 mM EGTA, 2.5 mM PyroPhosphate, 2 mM beta-glycerol-phosphate, 1 mM orthovanadate, 0.01 mM Calyculan A) with protease inhibitors were equilibrated for protein levels using a BCA protein assay kit (Pierce), resolved on 8% SDS-PAGE gels, and transferred to membrane. Membranes were blocked in milk, incubated o/n at 4C in diluted primary antibody, washed with TBS-T, incubated 1 hr in secondary antibody diluted in TBS-T plus milk, washed in TBS-T, and developed using SuperSignal ECL. Secondary antibodies: anti-rabbit (Millipore AP132P) and anti-mouse (Millipore AP124P). Nuclear fractions were isolated using a NE-PER nuclear and cytoplasmic extraction kit (Thermofisher) under manufacturers conditions.
p65-expressing DNA constructs RelA-Flag (22) (Addgene 20012) and GFP-RelA (21) (Addgene 23255) were transiently transfected into KL LJE1 cells using Lipofectamine 2000 (Thermo Fisher Scientific) according to the manufacturer's protocol. Cells were treated with drug as indicated 24 hours after transfection.

[3] = tested on: KL LJE1 cells; assay: qRT-PCR of chemokine (HRCG) gene expression in KL LJE1 cells; assay type: cell-based, mouse
Protocol: All cell lines were incubated at 37° C. and were maintained in an atmosphere containing 5% CO2. Cells were tested for Mycoplasma (Lonza) using manufacturer's conditions and were deemed negative. Cells were grown in Dulbecco's modified Eagles medium (DMEM) plus 10% fetal bovine serum (Gibco) and were continuously maintained under antibiotic selection for stable cell lines. Proliferation assays were performed by plating 2×10^3 cells per well of a 6-well plate, and cells were counted 5 days post-plating. Drug treatments were carried out using the following doses: entinostat 1 uM or 2 uM, RGFP966 10uM, TSA 0.5 uM, BRD3308 5 uM, trametinib 5 nM, 10 nM, and 25 nM, and MRTX1133 10 nM, 25 nM, and 50 nM, as indicated for the indicated treatment lengths. Media was changed and fresh drug added every 2 days.
(§1) mRNA was prepared using the Quick-RNA Miniprep kit (Zymo Research), including DNase treatment. cDNA was synthesized from 2 μg of RNA using SuperScript III (Life Technologies), and qPCR was carried out with diluted cDNA, appropriate primers, and SYBR Green PCR master mix (ThermoFisher Scientific) using a C1000 Thermal Cycler (BioRad). Relative mRNA levels were calculated using the delta Ct method, using Tbp as an internal control.

[4] = tested on: KL NSCLC GEMM; assay: Short-term (5 day) in vivo entinostat treatment, qRT-PCR on lung tumors and liver; parameters: species or system mouse; details: 10 mg/kg/day entinostat, oral gavage, 5 days
Protocol: KL mice were intratracheally intubated with lentivirus expressing Cre recombinase to initiate tumorigenesis and imaged biweekly by BLI starting 4 weeks after Cre administration. When tumor burden in all mice was greater than 5×107 photons/see as determined by BLI, treatment was initiated. Mice were randomized and treated daily by oral gavage for 5 days with vehicle or 10 mg/kg entinostat. In vivo treatment doses were selected based on publications (39, 69-71). Entinostat was diluted to 1 mg/mL in vehicle (0.5% Methyl cellulose in water), vortexed, sonicated 10 minutes, and administered at 10 mg/kg. Drug and vehicle was administered starting at ˜9am daily throughout the duration of treatment. The experiment was terminated after 5 days of treatment, at which time primary lung tumors and liver were isolated by dissection and immediately flash frozen.
as §1
Next, pharmacological inhibition of HDAC3 was assessed for impacting HRCG expression in vivo as observed in cell culture experiments (FIG. 12B, 18D-G). Lung tumorigenesis was initiated in KL GEMM mice, and disease growth was monitored over time using bioluminescence imaging (BLI) potentiated by the Rosa26^LSL-luferase genetic allele. When tumor burden was established in all mice (BLI >5×10^7 photons/sec), mice were randomized and treatment was initiated. Mice were treated daily for 5 days with vehicle or 10 mg/kg/day entinostat administered by oral gavage, after which lung tumors and liver were collected (FIG. 14C). Using qRT-PCR, gene expression of HDAC3 target genes in lung tumors and liver was assessed. […] To confirm that entinostat treatment was engaging on-target effects in the liver samples, the gene expression of canonical HDAC3 liver target genes Nr1d1 and Arntl was assessed (FIG. 14E).

## Nc1ccccc1NC(=O)c1ccc(CNC(=O)OCc2cccnc2)cc1 [entinostat]
[1]
  impact of Trametinib on the FGFR1 resistance mechanism: reverses the impact of Trametinib on the FGFR1 resistance mechanism
[2]; 5 hours, 1 uM entinostat or 5 uM BRD3308
  acetylation of wildtype p65 at K310 (versus K310A mutant): induce acetylation of wildtype p65 at K310
[2]; Flag-p65 or GFP-p65, 6 hr, 2 uM entinostat
  K310 acetylation on transfected p65: increased K310 acetylation on p65
[2]; Western blot, 6 hr, 2 uM entinostat, 10uM RGFP966, 0.5 uM TSA
  quantity of p65 protein in the nuclear fraction: increased the quantity of p65 protein in the nuclear fraction
[3]; 3 days, 1 uM entinostat
  HRCG gene expression response in cells expressing p65 WT or p65 K310A: K310 only significantly altered the gene expression response of Cc120, Cxc15, and Cc15
[3]; 3 days, 1 uM entinostat or 5 uM BRD3308
  gene expression induction in NT versus p65 KO cells: p65 facilitates maximal gene expression induction
[3]; 72 hr, 2 uM entinostat or 10uM RGFP966
  chemokine (SASP) gene expression: robust induction of gene expression
[4]
  Cxc110 expression in vivo, lung tumors versus liver: induced upon entinostat treatment selectively in lung tumor cells
  HRCG expression in livers from the same mice: did not induce HRCG expression
  HRCG expression in lung tumors: potently induced HRCG expression
  Nr1d1 and Arntl gene expression in the liver: impacted Nr1d1 and Arntl gene expression in the liver
